We go through two compounds from patent US20070248701A1, “METHODS AND FORMULATIONS FOR INHIBITING NATURALLY OCCURRING PHOSPHODIESTERASE” (priority 2003, published 2007).

Where two headings read alike, the source gives them in different places.

Assay [1] deals with Phosphodiesterase PDE1. The experiment in a line: Phosphodiesterase PDE1 enzyme assay. Particulars: reference compound tested concurrently, batch 70431; read-out: Concurrent IC50. Format: biochemical, bovine.
In assay [2] the target is T1, Phosphodiesterase PDE5 (Homo sapiens, UniProt O76074). As to conditions: reference compound, historical value; cited from earlier work.
For assay [3], the target named is T2, Phosphodiesterase PDE3 (Homo sapiens, UniProt Q14432). Particulars: reference compound, historical value; cited from earlier work.
T2 sequence (Q14432 whole entry): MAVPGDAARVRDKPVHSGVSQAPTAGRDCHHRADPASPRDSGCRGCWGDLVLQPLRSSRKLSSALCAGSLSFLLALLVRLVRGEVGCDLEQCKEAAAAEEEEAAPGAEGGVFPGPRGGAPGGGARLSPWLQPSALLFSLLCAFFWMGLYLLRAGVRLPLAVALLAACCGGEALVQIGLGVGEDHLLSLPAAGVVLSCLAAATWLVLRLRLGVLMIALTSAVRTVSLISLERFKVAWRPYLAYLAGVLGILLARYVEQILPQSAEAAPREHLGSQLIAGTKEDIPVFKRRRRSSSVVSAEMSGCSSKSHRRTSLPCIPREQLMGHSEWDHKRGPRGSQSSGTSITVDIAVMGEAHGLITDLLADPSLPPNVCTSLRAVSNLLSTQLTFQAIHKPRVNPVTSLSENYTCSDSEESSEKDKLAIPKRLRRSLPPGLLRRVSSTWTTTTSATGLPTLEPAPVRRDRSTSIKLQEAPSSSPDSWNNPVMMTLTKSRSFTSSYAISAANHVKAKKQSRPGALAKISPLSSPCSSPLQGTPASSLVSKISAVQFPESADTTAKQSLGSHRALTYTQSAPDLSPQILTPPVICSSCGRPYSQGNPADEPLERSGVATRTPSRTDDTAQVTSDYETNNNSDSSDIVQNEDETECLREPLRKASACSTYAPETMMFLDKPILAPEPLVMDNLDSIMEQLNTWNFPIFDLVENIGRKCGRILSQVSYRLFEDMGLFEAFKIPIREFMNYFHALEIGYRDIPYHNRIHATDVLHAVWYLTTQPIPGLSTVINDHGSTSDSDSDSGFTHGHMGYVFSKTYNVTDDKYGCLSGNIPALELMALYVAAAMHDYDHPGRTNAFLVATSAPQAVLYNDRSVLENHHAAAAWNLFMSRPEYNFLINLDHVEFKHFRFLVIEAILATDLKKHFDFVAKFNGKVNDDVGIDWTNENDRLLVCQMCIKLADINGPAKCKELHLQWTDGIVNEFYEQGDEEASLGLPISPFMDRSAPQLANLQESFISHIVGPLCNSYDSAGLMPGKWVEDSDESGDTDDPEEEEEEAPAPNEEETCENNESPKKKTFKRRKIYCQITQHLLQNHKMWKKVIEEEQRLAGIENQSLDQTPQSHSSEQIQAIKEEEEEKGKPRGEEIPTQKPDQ
Assay [4] addresses Phosphodiesterase PDE4. As to conditions: reference compound, historical value; cited from earlier work.
Assay [5] concerns the target T2, Phosphodiesterase PDE3. The experiment in a line: Phosphodiesterase PDE3 enzyme assay. Type of assay: biochemical. Particulars: reference compound tested concurrently, batch 70679; read-out: Concurrent IC50.
The target of assay [6] is T3, Phosphodiesterase PDE2 (Homo sapiens, UniProt O00408). The experiment in a line: Phosphodiesterase PDE2 enzyme assay. Type of assay: biochemical. Particulars: reference compound tested concurrently, batch 70678; read-out: Concurrent IC50.
T3 sequence (O00408 whole entry): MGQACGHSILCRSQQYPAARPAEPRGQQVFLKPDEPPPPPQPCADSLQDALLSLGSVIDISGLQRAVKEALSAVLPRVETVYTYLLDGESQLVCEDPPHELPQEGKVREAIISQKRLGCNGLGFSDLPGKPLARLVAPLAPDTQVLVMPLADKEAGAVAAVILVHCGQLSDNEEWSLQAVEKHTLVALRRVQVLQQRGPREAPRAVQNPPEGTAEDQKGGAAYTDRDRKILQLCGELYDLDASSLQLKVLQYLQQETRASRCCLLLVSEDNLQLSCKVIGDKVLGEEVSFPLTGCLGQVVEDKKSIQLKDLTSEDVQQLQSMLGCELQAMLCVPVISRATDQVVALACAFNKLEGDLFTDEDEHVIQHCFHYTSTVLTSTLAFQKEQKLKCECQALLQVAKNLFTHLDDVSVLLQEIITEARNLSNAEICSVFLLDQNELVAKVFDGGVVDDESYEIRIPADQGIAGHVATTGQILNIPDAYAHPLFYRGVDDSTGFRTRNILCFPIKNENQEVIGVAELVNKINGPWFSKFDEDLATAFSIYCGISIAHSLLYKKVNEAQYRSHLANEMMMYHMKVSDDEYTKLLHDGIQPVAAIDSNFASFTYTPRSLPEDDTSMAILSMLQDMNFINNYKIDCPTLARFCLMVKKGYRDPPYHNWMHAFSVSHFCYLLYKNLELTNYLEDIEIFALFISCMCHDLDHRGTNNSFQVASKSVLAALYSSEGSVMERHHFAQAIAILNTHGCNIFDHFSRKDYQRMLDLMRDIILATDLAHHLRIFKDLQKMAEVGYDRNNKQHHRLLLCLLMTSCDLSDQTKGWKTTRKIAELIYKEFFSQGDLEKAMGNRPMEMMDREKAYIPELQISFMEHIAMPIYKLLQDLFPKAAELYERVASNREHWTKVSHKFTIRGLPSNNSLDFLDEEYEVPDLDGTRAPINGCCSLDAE
The target of assay [7] is T1, Phosphodiesterase PDE5. The assay can be described thus: Phosphodiesterase PDE5 enzyme assay. Format: biochemical. As to conditions: reference compound tested concurrently, batch 70681; read-out: Concurrent IC50.
Assay [8] has as its target Phosphodiesterase PDE4. The experiment in a line: Phosphodiesterase PDE4 enzyme assay. Format: biochemical, human. As to conditions: reference compound tested concurrently, batch 70680; read-out: Concurrent IC50.
Assay [9] deals with T3, Phosphodiesterase PDE2. Particulars: reference compound, historical value; cited from earlier work.
Assay [10] concerns the target Phosphodiesterase PDE1. As to conditions: reference compound, historical value; cited from earlier work.
Assay [11] deals with T4, Phosphodiesterase PDE6 (Bos taurus, UniProt P11541+P23439).
T4 sequence (P11541 1-859): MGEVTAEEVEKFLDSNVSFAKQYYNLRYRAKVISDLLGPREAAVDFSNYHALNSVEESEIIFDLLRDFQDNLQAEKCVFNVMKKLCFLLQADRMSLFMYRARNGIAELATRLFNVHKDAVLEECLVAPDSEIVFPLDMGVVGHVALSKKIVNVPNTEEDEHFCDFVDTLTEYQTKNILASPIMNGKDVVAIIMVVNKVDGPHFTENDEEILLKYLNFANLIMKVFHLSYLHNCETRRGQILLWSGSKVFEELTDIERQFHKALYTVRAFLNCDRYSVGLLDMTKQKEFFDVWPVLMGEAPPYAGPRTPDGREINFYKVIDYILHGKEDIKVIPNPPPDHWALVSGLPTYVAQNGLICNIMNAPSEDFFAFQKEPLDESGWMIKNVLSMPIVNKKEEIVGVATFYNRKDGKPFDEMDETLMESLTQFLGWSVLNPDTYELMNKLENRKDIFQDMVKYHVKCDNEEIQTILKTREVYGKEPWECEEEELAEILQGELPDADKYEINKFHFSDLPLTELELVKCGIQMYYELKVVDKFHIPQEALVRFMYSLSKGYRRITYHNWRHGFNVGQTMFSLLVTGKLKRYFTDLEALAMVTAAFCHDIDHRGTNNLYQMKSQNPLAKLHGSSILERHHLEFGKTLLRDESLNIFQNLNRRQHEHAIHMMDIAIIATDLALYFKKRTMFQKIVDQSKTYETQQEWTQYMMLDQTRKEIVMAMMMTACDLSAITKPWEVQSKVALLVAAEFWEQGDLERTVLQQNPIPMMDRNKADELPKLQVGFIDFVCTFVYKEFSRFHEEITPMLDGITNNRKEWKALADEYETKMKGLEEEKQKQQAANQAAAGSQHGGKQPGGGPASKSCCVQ
T4 sequence (P23439 1-853): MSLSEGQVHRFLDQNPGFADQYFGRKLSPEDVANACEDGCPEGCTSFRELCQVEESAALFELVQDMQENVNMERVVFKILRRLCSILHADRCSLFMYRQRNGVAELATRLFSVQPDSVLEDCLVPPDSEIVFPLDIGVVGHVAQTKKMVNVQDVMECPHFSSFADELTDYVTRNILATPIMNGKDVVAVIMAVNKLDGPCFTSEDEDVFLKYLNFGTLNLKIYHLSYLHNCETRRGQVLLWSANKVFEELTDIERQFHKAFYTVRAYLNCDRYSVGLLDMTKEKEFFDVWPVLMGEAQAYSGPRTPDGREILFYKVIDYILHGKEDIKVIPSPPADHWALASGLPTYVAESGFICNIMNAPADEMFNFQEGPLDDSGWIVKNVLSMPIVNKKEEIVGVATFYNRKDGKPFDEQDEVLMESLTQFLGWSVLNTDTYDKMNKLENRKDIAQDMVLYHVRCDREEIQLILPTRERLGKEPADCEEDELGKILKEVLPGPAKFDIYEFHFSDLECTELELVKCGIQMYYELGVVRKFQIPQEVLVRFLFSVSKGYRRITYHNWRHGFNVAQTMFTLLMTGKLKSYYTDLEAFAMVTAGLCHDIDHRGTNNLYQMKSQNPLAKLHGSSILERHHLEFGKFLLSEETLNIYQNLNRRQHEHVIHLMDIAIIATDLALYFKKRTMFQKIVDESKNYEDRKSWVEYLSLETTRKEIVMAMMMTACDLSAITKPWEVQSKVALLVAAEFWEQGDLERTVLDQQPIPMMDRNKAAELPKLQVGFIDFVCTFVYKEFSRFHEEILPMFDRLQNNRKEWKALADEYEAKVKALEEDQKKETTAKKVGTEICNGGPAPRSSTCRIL
As to conditions: reference compound, historical value; cited from earlier work.

Assay [12] deals with T4, Phosphodiesterase PDE6. The assay can be described thus: Phosphodiesterase PDE6 enzyme assay. Type of assay: biochemical, bovine. As to conditions: reference compound tested concurrently, batch 70682; read-out: Concurrent IC50. As to the method:
The test material (TNPJCon) was tested using an Enzyme assays that involve PDE enzymes from both bovine and human origin known as PDE1, PDE2, PDE3, PDE4, PDE6. All of the enzyme assays were run on a 1% concentration of TNPJCon. Please note that the IC50 was not determined.

`CC(C)Cn1c(=O)n(C)c(=O)c2[nH]cnc21` [IBMX]: the IC50 – broadly, the point on the concentration scale where inhibition reaches its midpoint – on Phosphodiesterase PDE1 [1] was 3.76 µM; on Phosphodiesterase PDE5 [2], 63 µM; at Phosphodiesterase PDE3 [3], 4.6 µM; on Phosphodiesterase PDE4 [4], 6.5 µM; on Phosphodiesterase PDE3 [5] it was 20.8 µM; at Phosphodiesterase PDE2 [6], 81 µM. In addition, the concentration for half-maximal inhibition (IC50) on Phosphodiesterase PDE5 [7] is 65.4 µM; on Phosphodiesterase PDE4 [8], 30.8 µM; on Phosphodiesterase PDE2 [9], 30 µM; on Phosphodiesterase PDE1 [10] it was 1.1 µM.
Regarding `CCCOc1ccccc1-c1nc2nn[nH]c2c(=O)[nH]1` [Zaprinast], the concentration for half-maximal inhibition (IC50) is 0.22 µM on Phosphodiesterase PDE6 [11] and 0.281 µM at Phosphodiesterase PDE6 [12].
